The record followed here is patent US20230181746A1, “BENZOYLHYDRAZIDE-DERIVED HDAC DEGRADERS AS THERAPEUTICS FOR TREATING CANCER AND OTHER HUMAN DISEASES” (University of Florida Research Foundation, Inc., priority 2020, published 2023).

The subject of the test is NCI-60 panel of 60 cancer lines. As to the kind of experiment: NCI-60 cell line panel proliferation. It is filed as cell-based. The settings on record: five doses; leukemia, NSCLC, colon, CNS, melanoma, ovarian, renal, prostate and breast cancer lines. The method, then: The indicated cancer cell lines were treated with XZ9002 at five different doses. The percentage growth relative to the cell numbers before compound exposure was plotted against the XZ9002 concentrations in the log scale.

With `CCCNNC(=O)c1ccc(-c2ccc(NC(=O)CCCCCCC(=O)N[C@H](C(=O)N3C[C@H](O)C[C@H]3C(=O)N[C@@H](C)c3ccc(-c4scnc4C)cc3)C(C)(C)C)cc2)cc1` [XZ9002, N^1—((S)-1-((2S,4R)-4-hydroxy-2-(((S)-1-(4-(4-methylthiazol-5-yl)phenyl)ethyl)carbamoyl)pyrrolidin-1-yl)-3,3-dimethyl-1-oxobutan-2-yl)-N^5-(4′-(2-propylhydrazine-1-carbonyl)-[1,1′-biphenyl]-4-yl)octanediamide], the inhibition of proliferation result is on record as “effectively inhibits the proliferation”.
